Where “and” joins values, the source holds several entries; their conditions need not be identical. Identical values can stand only once. Like-named read-outs stand apart in the source and are kept apart here. Marks after values point to notes of the source that are not given here.
Columns and labels:
avidin [1] = target: T1, avidin (Gallus gallus, UniProt P02701); assay: Continuous injection ITC, single independent binding of lipoic acid to avidin; settings: 1 mM lipoic acid, continuous 0.1 mL/h into 25 μM avidin, 25° C., pH 6.6
T1 construct: purchased Sigma-Aldrich
T1 sequence (P02701 25-152): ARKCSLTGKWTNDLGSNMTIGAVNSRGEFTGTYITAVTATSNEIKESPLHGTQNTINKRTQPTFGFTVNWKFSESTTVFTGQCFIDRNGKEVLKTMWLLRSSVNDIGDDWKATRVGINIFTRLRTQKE
Experimental: (§1) The molecular weight of avidin (12.8 units per mg protein) was used as 66000 g/mol. […] […] HEPES (1 mM) was used as the buffer solution.
(§2) The continuous titrations were performed on a VP-ITC (Malvern Instruments, Westborough, Mass.) with a cell volume of 1.4 mL. The incremental titrations were performed on a NanoITC (TA Instruments, Lindon, Utah) with a cell volume of 1 mL. ITC experiments were carried out at 25° C. and the stirring speed was 270 rpm and 250 rpm for the continuous titration and incremental titration, respectively. For manipulating injection rate, a PHD 2000 syringe pump (Harvard Apparatus, Holliston, Mass.) was connected to the injection syringe of the VP-ITC.
Injection rate for the continuous injection mode was 0.1 mL/h. The fit for the continuous injection method was done after 12 μM of ligand was injected. […] Injection rate for the continuous injection mode is 0.1 mL/h. The fit for the continuous injection method was done after […] of ligand was injected.

avidin [2] = target: T1, avidin; settings: reported; pH 6.8; cited from earlier work
[3] = Tricine pH 8.5, 25° C.; for ln K1 / ln K2: EDTA/DPTA mixture, 99% CI in parentheses; for ln K: real-time evaluation from data at inflection points, continuous 7.2 μL/min
Experimental: The pH of these solutions was adjusted to 8.5 with 1 M NaOH solution. For the single independent binding site and two independent binding sites experiments, Tricine (20 mM) was used as a buffer solution. For the competitive binding site experiment, HEPES (20 mM) was used as a buffer solution.
The titrations were performed on a NanoITC (TA Instruments, New Castle, Del.) with gold cells with a cell volume of 1 mL. ITC experiments were carried out at 25° C. and the stirring speed was 250 rpm. For the single independent binding experiment, ligand of 20 mM in 100 μL syringe and for the competitive binding site and two independent binding sites model, ligand of 10 mM in 250 μL syringe were used. The injection rate was varied 1.7-10 μL/min for the continuous injection mode under setting tab in ITCRun software. During the equilibration, mass transfer of ligand at the tip of the injection syringe reduces the integrated heat of the first injection. The first data point for the incremental injection mode and data for the initial 10 μL of injection for the continuous injection mode is excluded for data fitting with binding models due to reduced amount of the heat flow.
By changing the concentration of EDTA and DPTA in the mixture, the various binding stoichiometry of the receptor, n and m, were simulated. […] The number of injections for the incremental injection mode experiment is 40 with an injection volume of 6 μL. Injection rate for the continuous injection mode is 7.2 μL/min.
The fit for the continuous injection method was done after 0.05 mM of ligand was injected. […] The positive peaks of the binding isotherms in the raw data (top) represent the exothermic heat of binding.

[4] = 1 mM EDTA + 4 mM BaCl2, HEPES pH 8.5, 25° C.
Experimental: The pH of these solutions was adjusted to 8.5 with 1 M NaOH solution. […] For the competitive binding site experiment, HEPES (20 mM) was used as a buffer solution.
Injection rate for the continuous injection mode is 10 μL/min.
The fit for the continuous injection method was done after 0.1 mM of ligand was injected. […] The positive peaks of the binding isotherms in the raw data (top) represent the exothermic heat of binding.

[5] = for ln K: Tricine pH 8.5, 25° C.
Experimental: The titrations were performed on a NanoITC (TA Instruments, New Castle, Del.) with gold cells with a cell volume of 1 mL. ITC experiments were carried out at 25° C. and the stirring speed was 250 rpm. For the single independent binding experiment, ligand of 20 mM in 100 μL syringe and for the competitive binding site and two independent binding sites model, ligand of 10 mM in 250 μL syringe were used. The injection rate was varied 1.7-10 μL/min for the continuous injection mode under setting tab in ITCRun software. […] The first data point for the incremental injection mode and data for the initial 10 μL of injection for the continuous injection mode is excluded for data fitting with binding models due to reduced amount of the heat flow.
Binding of Ba^2+ and EDTA were performed and analyzed with the single independent binding site model in order to obtain the confidence intervals depending on the number of injections.
The number of injections for the incremental injection experiment was 36 with an injection volume of 2.5 μL. An injection rate of 1.7 μL/min was utilized in the continuous injection experiment. The fit for the continuous injection method was done after 0.1 mM of ligand had been injected.
The experimental time for incremental injection mode experiment was ˜6.5 h (36 injections), while the continuous injection experiment completed within ˜1 h.

avidin [6] = target: T1, avidin; assay: Continuous injection ITC, binding of desthiobiotin to avidin, single independent binding site model; settings: 0.5 mM desthiobiotin, continuous 25 μL/h into 12.5 μM avidin, 25° C., pH 7.2
Experimental: as §1, §2

avidin [7] = target: T1, avidin; assay: Continuous injection ITC, competitive binding of desthiobiotin to avidin mixed with lipoic acid; settings: pH 6.6
Experimental: as §1, §2
[…] The fit for the continuous injection method was done after 12 μM of ligand was injected. […] […] The fit for the continuous injection method was done after […] of ligand was injected.

[8] = continuous injection 7.2 μL/min
[9] = incremental, 40 injections of 6 μL
[10] = apparent, 12.5 μM avidin mixed with 0.75 mM lipoic acid, 25° C.

## O=C(O)CCCCC1CCSS1 (stereo not drawn) [Lipoic acid, α-Lipoic acid]
Avidin [1]
  ΔH1: -9.95 kcal/mol
Avidin [1]; read-out: Kd1
  Kd: 0.52 µM
Avidin [2]
  Kd: 0.7 µM

## O.O.O.O.O=[N+]([O-])[O-].O=[N+]([O-])[O-].[Ca+2] [Ca(NO3)2, Calcium nitrate tetrahydrate]
[3]; [8]
  ln K1: 18.11 (18.07, 18.15)
  ln K2: 11.27 (11.25, 11.30)
[3]; [9]
  ln K1: 19.50 (18.98, 20.33)
  ln K2: 11.42 (11.14, 11.69)
[3]; association of Ca^2+ and DPTA
  ln K: 12.24^g
[3]; association of Ca^2+ and EDTA
  ln K: 18.98^f
[4]; continuous injection 10 μL/min, 99% CI in parentheses
  ln K: 20.535 (20.52, 20.55)
[4]; incremental, 20 injections of 10 μL, 99% CI in parentheses
  ln K: 20.47 (20.3, 20.6)
[4]; real-time evaluation from data at inflection point, continuous injection 10 μL/min
  ln K: 20.64

## [Ba+2].[Cl-].[Cl-] [BaCl2, barium chloride]
[5]; Ba^2+ and EDTA, obtained independently by incremental injection, input for the competitive model, listed as Ba^2+
  K2: 1.36e+06 M⁻¹
[5]; continuous injection 1.7 μL/min, 99% confidence interval in parentheses
  ln K: 14.15 (14.13, 14.16) and 14.11 (14.09, 14.03) and 13.73 (13.71, 13.75)
[5]; incremental injection, 9 injections, 99% confidence interval in parentheses
  ln K: 14.26 (13.5, 16.7) and 14.14 (13.0, 16.5) and 13.99 (13.4, 14.6)
[5]; incremental injection, 18 injections, 99% confidence interval in parentheses
  ln K: 14.07 (13.6, 14.6) and 14.05 (13.8, 14.5) and 13.88 (13.3, 14.8)
[5]; incremental injection, 36 injections, 99% confidence interval in parentheses
  ln K: 14.07 (13.8, 14.4) and 14.13 (13.9, 14.4) and 14.02 (13.8, 14.3)
[5]; real-time evaluation from data at inflection point, continuous injection 1.7 μL/min
  ln K: 14.22

## C[C@@H]1NC(=O)N[C@@H]1CCCCCC(=O)O [desthiobiotin, d-desthiobiotin]
Avidin [6]
  ΔH: -17.55 kcal/mol
Avidin [7]; 0.5 mM desthiobiotin, 25 μL/h into 12.5 μM avidin mixed with 0.75 mM lipoic acid, 25° C.
  m: 0.294
Avidin [7]; [10]
  Kd,app: 0.00104 µM
  ΔHapp: -9.74 kcal/mol
Avidin [7]; evaluated by competitive binding method from lipoic acid and apparent parameters
  ΔH: -19.7 kcal/mol

Source: US20160216259A1, “ISOTHERMAL TITRATION CALORIMETRY METHODS FOR EVALUATION OF THERMODYNAMIC BINDING PROPERTIES” (The Penn State Research Foundation, priority 2015, published 2016)
